Laboratory results as given in paper PMC3694096, “Development of Novel In Vivo Chemical Probes to Address CNS Protein Kinase Involvement in Synaptic Dysfunction” (PLoS ONE, 2013).
pIC50: −log10 of the molar value. Converted amounts (≈) assume the structure as drawn. Read-outs that look alike come from different tables or passages of the source.

Experiments:
PKCζ = target: T1, PKCζ (Homo sapiens, UniProt Q05513); assay: Kinome profiler screen; type: biochemical; conditions: at 20,000 nM inhibitor; kinase activity remaining
T1 construct: purchased Millipore KinaseProfiler

EphA8 = target: T2, EphA8 (Homo sapiens, UniProt P29322); assay: Kinome profiler screen; type: biochemical; conditions: at 20,000 nM inhibitor; kinase activity remaining
T2 construct: purchased Millipore KinaseProfiler

IRR = target: T3, IRR (Homo sapiens, UniProt P14616); assay: Kinome profiler screen; type: biochemical; conditions: at 20,000 nM inhibitor; kinase activity remaining
T3 construct: purchased Millipore KinaseProfiler

ACK1 = target: T4, ACK1 (Homo sapiens, UniProt Q07912); assay: Kinome profiler screen; type: biochemical; conditions: at 20,000 nM inhibitor; kinase activity remaining
T4 construct: purchased Millipore KinaseProfiler

CK2 = target: T5, CK2 (Homo sapiens, UniProt P68400); assay: Kinome profiler screen; type: biochemical; conditions: at 20,000 nM inhibitor; kinase activity remaining
T5 construct: purchased Millipore KinaseProfiler

TAK1 = target: T6, TAK1 (Homo sapiens, UniProt O43318); assay: Kinome profiler screen; type: biochemical; conditions: at 20,000 nM inhibitor; kinase activity remaining
T6 construct: purchased Millipore KinaseProfiler

PKG1α = target: T7, PKG1α (Homo sapiens, UniProt Q13976); assay: Kinome profiler screen; type: biochemical; conditions: at 20,000 nM inhibitor; kinase activity remaining
T7 construct: purchased Millipore KinaseProfiler

PKCα = target: T8, PKCα (Homo sapiens, UniProt P17252); assay: Kinome profiler screen; type: biochemical; conditions: at 20,000 nM inhibitor; kinase activity remaining
T8 construct: purchased Millipore KinaseProfiler

RIPK2 = target: T9, RIPK2 (Homo sapiens, UniProt O43353); assay: Kinome profiler screen; type: biochemical; conditions: at 20,000 nM inhibitor; kinase activity remaining
T9 construct: purchased Millipore KinaseProfiler

FGFR1 = target: T10, FGFR1 (Homo sapiens, UniProt P11362); assay: Kinome profiler screen; type: biochemical; conditions: at 20,000 nM inhibitor; kinase activity remaining
T10 construct: purchased Millipore KinaseProfiler
T10 sequence (P11362 22-822): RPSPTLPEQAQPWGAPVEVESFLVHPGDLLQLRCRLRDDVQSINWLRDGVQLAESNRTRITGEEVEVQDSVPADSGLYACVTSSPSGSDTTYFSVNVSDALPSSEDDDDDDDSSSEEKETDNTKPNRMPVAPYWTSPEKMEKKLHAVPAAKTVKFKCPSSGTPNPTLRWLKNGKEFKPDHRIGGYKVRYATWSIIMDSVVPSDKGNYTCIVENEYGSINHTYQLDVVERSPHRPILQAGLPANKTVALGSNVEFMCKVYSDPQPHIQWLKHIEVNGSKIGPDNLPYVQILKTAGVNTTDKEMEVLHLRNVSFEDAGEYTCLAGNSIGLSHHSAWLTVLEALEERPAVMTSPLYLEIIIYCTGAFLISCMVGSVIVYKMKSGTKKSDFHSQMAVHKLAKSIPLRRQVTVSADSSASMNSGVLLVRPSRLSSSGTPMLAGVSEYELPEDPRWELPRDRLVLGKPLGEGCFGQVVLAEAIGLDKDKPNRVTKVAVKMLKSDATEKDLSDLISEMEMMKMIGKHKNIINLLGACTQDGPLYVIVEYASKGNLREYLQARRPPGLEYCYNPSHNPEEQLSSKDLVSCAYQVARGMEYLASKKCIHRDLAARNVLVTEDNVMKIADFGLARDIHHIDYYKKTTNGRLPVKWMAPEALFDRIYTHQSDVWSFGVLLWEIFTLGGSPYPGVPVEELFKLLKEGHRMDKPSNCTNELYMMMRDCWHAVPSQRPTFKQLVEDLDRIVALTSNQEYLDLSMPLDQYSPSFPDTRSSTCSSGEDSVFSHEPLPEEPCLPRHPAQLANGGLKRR

IGF-1R = target: T11, IGF-1R (Homo sapiens, UniProt P08069); assay: Kinome profiler screen; type: biochemical; conditions: at 20,000 nM inhibitor; kinase activity remaining
T11 construct: purchased Millipore KinaseProfiler

[1] = target: T12, PI3 Kinase (p110δ/p85α)(m) (Mus musculus, UniProt O35904); assay: Kinome profiler screen; type: biochemical; conditions: at 20,000 nM inhibitor; kinase activity remaining
T12 construct: purchased Millipore KinaseProfiler

Flt1 = target: T13, Flt1 (Homo sapiens, UniProt P17948); assay: Kinome profiler screen; type: biochemical; conditions: for activity at 20 µM: at 20,000 nM inhibitor, kinase activity remaining
T13 construct: purchased Millipore
T13 sequence (P17948 27-1338): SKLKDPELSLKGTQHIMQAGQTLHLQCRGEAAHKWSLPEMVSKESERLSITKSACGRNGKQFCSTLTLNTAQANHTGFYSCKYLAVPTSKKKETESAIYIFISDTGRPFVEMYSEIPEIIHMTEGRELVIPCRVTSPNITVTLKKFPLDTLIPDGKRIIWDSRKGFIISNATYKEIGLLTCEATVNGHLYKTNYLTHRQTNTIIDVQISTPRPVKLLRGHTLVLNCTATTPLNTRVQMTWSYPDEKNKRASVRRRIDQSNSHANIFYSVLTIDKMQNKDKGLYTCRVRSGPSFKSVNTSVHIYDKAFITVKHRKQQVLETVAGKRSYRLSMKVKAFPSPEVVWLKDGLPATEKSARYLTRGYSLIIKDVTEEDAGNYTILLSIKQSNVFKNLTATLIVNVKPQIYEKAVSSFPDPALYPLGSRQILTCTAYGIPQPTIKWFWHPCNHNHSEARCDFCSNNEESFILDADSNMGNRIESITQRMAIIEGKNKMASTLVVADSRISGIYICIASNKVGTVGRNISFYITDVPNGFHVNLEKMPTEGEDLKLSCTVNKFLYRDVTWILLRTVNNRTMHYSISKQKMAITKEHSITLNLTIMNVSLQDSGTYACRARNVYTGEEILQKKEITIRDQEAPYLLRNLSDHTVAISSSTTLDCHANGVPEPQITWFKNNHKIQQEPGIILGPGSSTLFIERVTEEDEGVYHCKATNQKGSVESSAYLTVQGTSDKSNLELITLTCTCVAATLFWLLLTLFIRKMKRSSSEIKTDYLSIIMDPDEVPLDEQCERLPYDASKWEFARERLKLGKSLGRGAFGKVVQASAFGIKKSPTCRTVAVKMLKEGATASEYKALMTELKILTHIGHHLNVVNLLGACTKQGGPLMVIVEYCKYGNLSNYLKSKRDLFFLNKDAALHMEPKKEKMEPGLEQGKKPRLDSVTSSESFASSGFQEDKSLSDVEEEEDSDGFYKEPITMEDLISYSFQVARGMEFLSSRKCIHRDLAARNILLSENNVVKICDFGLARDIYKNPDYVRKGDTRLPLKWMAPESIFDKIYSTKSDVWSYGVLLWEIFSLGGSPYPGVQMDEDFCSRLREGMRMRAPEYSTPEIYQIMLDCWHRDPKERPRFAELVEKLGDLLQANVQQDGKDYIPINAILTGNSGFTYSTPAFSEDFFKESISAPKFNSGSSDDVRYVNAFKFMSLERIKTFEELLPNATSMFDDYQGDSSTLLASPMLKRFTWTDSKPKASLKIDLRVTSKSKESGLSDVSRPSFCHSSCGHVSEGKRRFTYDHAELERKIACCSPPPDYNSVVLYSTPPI

BRK = target: T14, BRK (Homo sapiens, UniProt Q13882); assay: Kinome profiler screen; type: biochemical; conditions: at 20,000 nM inhibitor; kinase activity remaining
T14 construct: purchased Millipore KinaseProfiler

SIK = target: T15, SIK (Homo sapiens, UniProt P57059); assay: Kinome profiler screen; type: biochemical; conditions: at 20,000 nM inhibitor; kinase activity remaining
T15 construct: purchased Millipore KinaseProfiler

PDK1 = target: T16, PDK1 (Homo sapiens, UniProt O15530); assay: Kinome profiler screen; type: biochemical; conditions: at 20,000 nM inhibitor; kinase activity remaining
T16 construct: purchased Millipore KinaseProfiler

Axl = target: T17, Axl (Homo sapiens, UniProt P30530); assay: Kinome profiler screen; type: biochemical; conditions: at 20,000 nM inhibitor; kinase activity remaining
T17 construct: purchased Millipore KinaseProfiler

FAK = target: T18, FAK (Homo sapiens, UniProt Q05397); assay: Kinome profiler screen; type: biochemical; conditions: at 20,000 nM inhibitor; kinase activity remaining
T18 construct: purchased Millipore KinaseProfiler
T18 sequence (Q05397 whole entry): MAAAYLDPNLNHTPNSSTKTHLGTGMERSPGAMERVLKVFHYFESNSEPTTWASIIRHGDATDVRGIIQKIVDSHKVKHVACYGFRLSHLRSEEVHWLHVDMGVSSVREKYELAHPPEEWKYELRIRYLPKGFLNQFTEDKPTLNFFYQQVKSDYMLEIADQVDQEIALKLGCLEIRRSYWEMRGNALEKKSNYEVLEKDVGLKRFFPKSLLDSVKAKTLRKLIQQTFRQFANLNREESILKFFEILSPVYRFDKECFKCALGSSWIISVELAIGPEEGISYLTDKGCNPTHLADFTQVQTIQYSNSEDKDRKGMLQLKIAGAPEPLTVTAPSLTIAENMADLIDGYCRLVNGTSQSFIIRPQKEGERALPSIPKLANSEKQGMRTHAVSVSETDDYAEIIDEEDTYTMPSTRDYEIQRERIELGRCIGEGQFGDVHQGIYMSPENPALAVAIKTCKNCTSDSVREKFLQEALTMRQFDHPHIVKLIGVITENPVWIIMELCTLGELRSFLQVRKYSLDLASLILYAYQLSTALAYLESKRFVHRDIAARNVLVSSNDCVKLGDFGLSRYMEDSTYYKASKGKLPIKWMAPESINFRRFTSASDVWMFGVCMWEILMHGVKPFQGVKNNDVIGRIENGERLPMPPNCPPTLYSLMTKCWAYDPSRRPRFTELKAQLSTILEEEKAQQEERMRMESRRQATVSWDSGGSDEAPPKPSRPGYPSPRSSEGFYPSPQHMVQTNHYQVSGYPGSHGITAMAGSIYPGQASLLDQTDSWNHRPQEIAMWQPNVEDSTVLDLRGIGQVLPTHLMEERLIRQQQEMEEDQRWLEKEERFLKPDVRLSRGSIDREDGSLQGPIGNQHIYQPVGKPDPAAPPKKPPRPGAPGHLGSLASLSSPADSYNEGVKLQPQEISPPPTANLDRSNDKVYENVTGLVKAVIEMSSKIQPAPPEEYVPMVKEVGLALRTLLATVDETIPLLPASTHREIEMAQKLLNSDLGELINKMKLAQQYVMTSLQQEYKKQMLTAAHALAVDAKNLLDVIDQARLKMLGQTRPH

cSRC = target: T19, cSRC (Homo sapiens, UniProt P12931); assay: Kinome profiler screen; type: biochemical; conditions: at 20,000 nM inhibitor; kinase activity remaining
T19 construct: purchased Millipore KinaseProfiler

Lck = target: T20, Lck (Homo sapiens, UniProt P06239); assay: Kinome profiler screen; type: biochemical; conditions: at 20,000 nM inhibitor; kinase activity remaining
T20 construct: purchased Millipore KinaseProfiler

PDGFRβ = target: T21, PDGFRβ (Homo sapiens, UniProt P09619); assay: Kinome profiler screen; type: biochemical; conditions: at 20,000 nM inhibitor; kinase activity remaining
T21 construct: purchased Millipore KinaseProfiler

EphA2 = target: T22, EphA2 (Homo sapiens, UniProt P29317); assay: Kinome profiler screen; type: biochemical; conditions: at 20,000 nM inhibitor; kinase activity remaining
T22 construct: purchased Millipore KinaseProfiler

Pim-1 = target: T23, Pim-1 (Homo sapiens, UniProt P11309); assay: Kinome profiler screen; type: biochemical; conditions: at 20,000 nM inhibitor; kinase activity remaining
T23 construct: purchased Millipore KinaseProfiler

FGFR2(N549H) = target: T24, FGFR2(N549H) (Homo sapiens, UniProt P21802, N549H); assay: Kinome profiler screen; type: biochemical; conditions: at 20,000 nM inhibitor; kinase activity remaining
T24 construct: purchased Millipore KinaseProfiler

FGFR3 = target: T25, FGFR3 (Homo sapiens, UniProt P22607); assay: Kinome profiler screen; type: biochemical; conditions: at 20,000 nM inhibitor; kinase activity remaining
T25 construct: purchased Millipore KinaseProfiler

Hck = target: T26, Hck (Homo sapiens, UniProt P08631); assay: Kinome profiler screen; type: biochemical; conditions: at 20,000 nM inhibitor; kinase activity remaining
T26 construct: purchased Millipore KinaseProfiler

Fms(Y969C) = target: T27, Fms(Y969C) (Homo sapiens, UniProt P07333, Y969C); assay: Kinome profiler screen; type: biochemical; conditions: at 20,000 nM inhibitor; kinase activity remaining
T27 construct: purchased Millipore KinaseProfiler

cKit(D816V) = target: T28, cKit(D816V) (Homo sapiens, UniProt P10721, D816V); assay: Kinome profiler screen; type: biochemical; conditions: at 20,000 nM inhibitor; kinase activity remaining
T28 construct: purchased Millipore KinaseProfiler
T28 sequence (P10721 26-976 D816V): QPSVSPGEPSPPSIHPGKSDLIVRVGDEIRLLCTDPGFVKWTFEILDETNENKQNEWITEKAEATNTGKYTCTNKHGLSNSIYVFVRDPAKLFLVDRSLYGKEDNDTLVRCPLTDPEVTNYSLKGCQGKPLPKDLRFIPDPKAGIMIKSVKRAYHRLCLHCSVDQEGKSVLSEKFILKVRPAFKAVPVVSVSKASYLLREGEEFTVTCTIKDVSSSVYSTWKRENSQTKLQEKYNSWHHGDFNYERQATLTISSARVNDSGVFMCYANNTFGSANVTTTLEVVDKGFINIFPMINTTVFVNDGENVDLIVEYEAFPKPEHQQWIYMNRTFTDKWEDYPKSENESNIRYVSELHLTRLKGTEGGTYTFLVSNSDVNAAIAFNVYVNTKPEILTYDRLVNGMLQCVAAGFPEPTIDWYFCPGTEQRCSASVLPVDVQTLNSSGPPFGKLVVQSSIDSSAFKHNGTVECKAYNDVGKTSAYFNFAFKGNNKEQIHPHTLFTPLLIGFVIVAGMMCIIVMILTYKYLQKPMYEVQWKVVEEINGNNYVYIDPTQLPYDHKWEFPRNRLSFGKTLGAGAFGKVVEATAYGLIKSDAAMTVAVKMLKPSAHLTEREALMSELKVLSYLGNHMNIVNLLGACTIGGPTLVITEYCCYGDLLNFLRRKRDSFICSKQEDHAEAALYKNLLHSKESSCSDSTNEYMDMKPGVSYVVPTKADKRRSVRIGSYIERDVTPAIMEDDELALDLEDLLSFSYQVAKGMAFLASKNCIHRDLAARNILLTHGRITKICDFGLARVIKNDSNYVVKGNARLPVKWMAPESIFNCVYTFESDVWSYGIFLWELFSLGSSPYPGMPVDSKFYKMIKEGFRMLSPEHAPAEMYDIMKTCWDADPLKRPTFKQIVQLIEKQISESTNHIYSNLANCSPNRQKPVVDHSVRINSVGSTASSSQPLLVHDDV

cKit(V654A) = target: T29, cKit(V654A) (Homo sapiens, UniProt P10721, V654A); assay: Kinome profiler screen; type: biochemical; conditions: at 20,000 nM inhibitor; kinase activity remaining
T29 construct: purchased Millipore KinaseProfiler
T29 sequence (P10721 26-976 V654A): as the sequence (P10721 26-976 D816V) above, with V629A, V791D counted along it

CDK2/cyclinA = target: T30, CDK2/cyclinA (Homo sapiens, UniProt P24941); assay: Kinome profiler screen; type: biochemical; conditions: at 20,000 nM inhibitor; kinase activity remaining
T30 construct: purchased Millipore KinaseProfiler

Abl (M351T) = target: T31, Abl (M351T) (Homo sapiens, UniProt P00519, M351T); assay: Kinome profiler screen; type: biochemical; conditions: at 20,000 nM inhibitor; kinase activity remaining
T31 construct: purchased Millipore KinaseProfiler

GSK3α = target: T32, GSK3α (Homo sapiens, UniProt P49840); assay: Kinome profiler screen; type: biochemical; conditions: at 20,000 nM inhibitor; kinase activity remaining
T32 construct: purchased Millipore KinaseProfiler

[2] = target: T33, PI3 Kinase (p110α (E545K)/p85α)(m) (Mus musculus, UniProt P42337, E545K); assay: Kinome profiler screen; type: biochemical; conditions: at 20,000 nM inhibitor; kinase activity remaining
T33 construct: purchased Millipore KinaseProfiler

PKCε = target: T34, PKCε (Homo sapiens, UniProt Q02156); assay: Kinome profiler screen; type: biochemical; conditions: at 20,000 nM inhibitor; kinase activity remaining
T34 construct: purchased Millipore KinaseProfiler
T34 sequence (Q02156 whole entry): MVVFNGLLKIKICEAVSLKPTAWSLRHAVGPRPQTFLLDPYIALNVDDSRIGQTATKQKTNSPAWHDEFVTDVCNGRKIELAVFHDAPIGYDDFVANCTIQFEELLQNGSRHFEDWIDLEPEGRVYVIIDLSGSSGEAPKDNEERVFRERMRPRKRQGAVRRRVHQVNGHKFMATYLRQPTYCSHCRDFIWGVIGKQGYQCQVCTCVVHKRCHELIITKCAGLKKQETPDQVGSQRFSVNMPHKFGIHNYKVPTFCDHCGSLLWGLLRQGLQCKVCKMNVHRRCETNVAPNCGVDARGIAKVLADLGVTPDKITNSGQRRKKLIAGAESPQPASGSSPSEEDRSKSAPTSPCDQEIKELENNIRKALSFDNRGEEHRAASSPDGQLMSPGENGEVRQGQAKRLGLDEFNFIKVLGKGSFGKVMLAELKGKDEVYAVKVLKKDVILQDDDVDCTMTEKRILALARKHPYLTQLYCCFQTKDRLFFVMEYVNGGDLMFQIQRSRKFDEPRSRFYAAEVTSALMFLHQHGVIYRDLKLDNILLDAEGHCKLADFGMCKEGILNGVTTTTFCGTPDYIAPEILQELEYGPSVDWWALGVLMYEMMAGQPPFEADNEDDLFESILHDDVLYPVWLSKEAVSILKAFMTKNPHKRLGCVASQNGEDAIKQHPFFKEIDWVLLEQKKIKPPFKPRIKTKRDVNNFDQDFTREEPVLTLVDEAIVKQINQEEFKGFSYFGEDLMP

Aqueous solubility = type: physicochemical; conditions: for solubility at 24 h: water, 37 °C, thermodynamic from solid
Procedure: Aqueous solubility (logS) and chemical stability were determined as previously described. Briefly, solutions for aqueous solubility (log S) determination were made by gravimetric methods using a Sartorius AG (Germany) BP 211 D analytical balance. Dry borosilicate capillary tubes (Büchi, Switzerland) were weighed and various amounts of compound (ranging from 1.2–1.5 mg) or the hydrochloride hydrate form (ranging from 10–20 mg) were added to the tared tubes, then water added to create solutions ranging in concentrations from […]. Tubes containing the samples were mixed to ensure wetting and incubated at 37°C for 24 h. Aliquots were collected from each tube, centrifuged at 12,000 g-min, and analyzed by HPLC. Concentrations were calculated using area under the peak (260 nm) at the appropriate retention time relative to a standard curve obtained from serial dilutions of each purified compound. […]. The co-solvent was methanol, experimental pH range was 1.7–10.0, temperature was 22±2°C, ionic strength was 0.15 M KCl. Five titrations were used to calculate the pKa using the Yasuda-Shedlovsky technique. […].

mTOR = target: T35, mTOR (Homo sapiens, UniProt P42345); assay: Kinome profiler screen; type: biochemical; conditions: at 20,000 nM inhibitor; kinase activity remaining
T35 construct: purchased Millipore KinaseProfiler

GRK7 = target: T36, GRK7 (Homo sapiens, UniProt Q8WTQ7); assay: Kinome profiler screen; type: biochemical
T36 construct: purchased Millipore KinaseProfiler

Row | Compound | activity at 20 µM (PKCζ) [%] | activity at 20 µM (EphA8) [%] | activity at 20 µM (IRR) [%] | activity at 20 µM (ACK1) [%] | activity at 20 µM (CK2) [%] | activity at 20 µM (TAK1) [%] | activity at 20 µM (PKG1α) [%] | activity at 20 µM (PKCα) [%] | activity at 20 µM (RIPK2) [%] | activity at 20 µM (FGFR1) [%] | activity at 20 µM (IGF-1R) [%] | activity at 20 µM [1] [%] | activity at 20 µM (Flt1) [%] | activity at 20 µM (BRK) [%] | activity at 20 µM (SIK) [%] | activity at 20 µM (PDK1) [%] | activity at 20 µM (Axl) [%] | activity at 20 µM (FAK) [%] | activity at 20 µM (cSRC) [%] | activity at 20 µM (Lck) [%] | further results
1 | CN(C)c1cc(-c2ccncc2)c(-c2cccc3ccccc23)nn1 [MW181, N,N-dimethyl-6-(naphthalen-1-yl)-5-(pyridin-4-yl)pyridazin-3-amine] | 98 | 91 | 108 | 106 | 104 | 104 | 97 | 86 | 84 | 103 | 121 | 101 | 96 | 101 | 92 | 105 | 99 | 102 | 101 | 89 | activity at 20 µM (PDGFRβ): 99%; activity at 20 µM (EphA2): 91%; activity at 20 µM (Pim-1): 107%; activity at 20 µM (FGFR2(N549H)): 96%; activity at 20 µM (FGFR3): 118%; activity at 20 µM (Hck): 84%; activity at 20 µM (Fms(Y969C)): 91%; activity at 20 µM (cKit(D816V)): 103%; activity at 20 µM (cKit(V654A)): 83%; activity at 20 µM (CDK2/cyclinA): 92%; activity at 20 µM (Abl (M351T)): 101%; activity at 20 µM (GSK3α): 95%; activity at 20 µM [2]: 99%; activity at 20 µM (PKCε): 98%; Aqueous Solubility (37ºC), HCl hydrate (Aqueous solubility; hydrochloride hydrate form, 24 h): ~800 mM; solubility at 24 h (Aqueous solubility; compound (not the salt), 24 h, read-out: Aqueous Solubility (37ºC)): 0.205 mM; solubility at 24 h (Aqueous solubility; hydrochloride hydrate form, 24 h, read-out: Aqueous Solubility (37ºC), HCl hydrate): 840 mM (≈ 274 mg/mL); activity at 20 µM (mTOR): 109%; activity at 20 µM (GRK7; at 20,000 nM inhibitor, kinase activity remaining, read-out: % Activity): 102%
2 | CN(C)c1cc(-c2ccncc2)c(-c2ccc3ccccc3c2)nn1 [MW108, N, N-dimethyl-6-(naphthalen-2-yl)-5-(pyridin-4-yl)pyridazin-3-amine] | 103 | 95 | 94 | 100 | 106 | 102 | 93 | 92 | 57 | 93 | 137 | 100 | 38 | 85 | 91 | 104 | 106 | 95 | 125 | 62 | pIC50 (Flt1): < 4.52; activity at 20 µM (PDGFRβ): 99%; activity at 20 µM (EphA2): 83%; activity at 20 µM (Pim-1): 103%; activity at 20 µM (FGFR2(N549H)): 76%; activity at 20 µM (FGFR3): 86%; activity at 20 µM (Hck): 93%; activity at 20 µM (Fms(Y969C)): 100%; activity at 20 µM (cKit(D816V)): 103%; activity at 20 µM (cKit(V654A)): 106%; activity at 20 µM (CDK2/cyclinA): 79%; activity at 20 µM (Abl (M351T)): 106%; activity at 20 µM (GSK3α): 90%; activity at 20 µM [2]: 99%; activity at 20 µM (PKCε): 90%; solubility at 24 h (Aqueous solubility; Aqueous Solubility (37 °C)): 0.058 mM (≈ 0.0189 mg/mL); solubility at 24 h (Aqueous solubility; Aqueous Solubility (37 °C), HCl hydrate): 370 mM (≈ 121 mg/mL); Aqueous Solubility (37ºC), HCl hydrate (Aqueous solubility; 24 h): ~400 mM; activity at 20 µM (mTOR): 92%; activity at 20 µM (GRK7): 98%
